Assay results reported in patent US20210070748A1, “INHIBITORS OF BRUTONS TYROSINE KINASE” (Pharmacyclics LLC, priority 2015, published 2021).

Tests used:
[1] = biological target: T1, JAK3 (Homo sapiens, UniProt P52333); assay: Inhibition of a panel of kinases, in vitro HotSpot kinase assay: JAK3; format: biochemical; details: D-compounds panel data; 1 μM ATP; read-out: IC50 JAK3
T1 sequence (P52333 1-1124): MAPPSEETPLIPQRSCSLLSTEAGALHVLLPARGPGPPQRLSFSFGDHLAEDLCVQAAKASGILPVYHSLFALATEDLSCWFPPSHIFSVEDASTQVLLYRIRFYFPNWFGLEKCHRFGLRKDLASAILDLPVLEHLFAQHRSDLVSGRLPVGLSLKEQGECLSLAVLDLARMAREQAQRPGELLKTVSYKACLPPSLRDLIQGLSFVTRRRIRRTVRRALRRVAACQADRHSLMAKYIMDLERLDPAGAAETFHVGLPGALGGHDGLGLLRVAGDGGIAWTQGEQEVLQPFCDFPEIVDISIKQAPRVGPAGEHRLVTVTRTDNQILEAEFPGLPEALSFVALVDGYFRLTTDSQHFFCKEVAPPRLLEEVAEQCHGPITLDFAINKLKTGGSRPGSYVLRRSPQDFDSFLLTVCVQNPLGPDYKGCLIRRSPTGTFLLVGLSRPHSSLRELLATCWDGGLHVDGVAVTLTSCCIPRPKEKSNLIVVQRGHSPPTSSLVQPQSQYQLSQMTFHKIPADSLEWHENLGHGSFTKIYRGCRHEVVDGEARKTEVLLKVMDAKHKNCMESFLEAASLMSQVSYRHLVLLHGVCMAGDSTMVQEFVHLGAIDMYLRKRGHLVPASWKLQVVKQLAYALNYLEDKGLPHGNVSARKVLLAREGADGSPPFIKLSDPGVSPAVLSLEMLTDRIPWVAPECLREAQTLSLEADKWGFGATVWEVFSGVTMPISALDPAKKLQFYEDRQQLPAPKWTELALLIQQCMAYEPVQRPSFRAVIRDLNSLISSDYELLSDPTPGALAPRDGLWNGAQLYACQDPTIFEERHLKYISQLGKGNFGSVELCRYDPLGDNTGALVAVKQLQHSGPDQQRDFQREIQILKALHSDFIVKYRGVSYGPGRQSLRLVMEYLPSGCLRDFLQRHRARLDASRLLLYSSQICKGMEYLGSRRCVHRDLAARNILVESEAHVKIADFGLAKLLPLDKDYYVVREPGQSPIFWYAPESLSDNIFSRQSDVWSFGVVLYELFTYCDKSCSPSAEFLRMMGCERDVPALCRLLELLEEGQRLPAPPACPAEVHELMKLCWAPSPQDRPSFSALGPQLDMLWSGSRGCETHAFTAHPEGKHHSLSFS

[2] = biological target: EGFR (Homo sapiens, UniProt P00533); assay: Inhibition of a panel of kinases, in vitro HotSpot kinase assay: EGFR; format: biochemical; details: D-compounds panel data; 1 μM ATP
Procedure: The degree of inhibition of a panel of kinases is determined using the in vitro HotSpot kinase assay (purified enzymes, ^33P-ATP, an appropriate substrate and 1 μM ATP).

Sequence of EGFR (P00533 25-1210): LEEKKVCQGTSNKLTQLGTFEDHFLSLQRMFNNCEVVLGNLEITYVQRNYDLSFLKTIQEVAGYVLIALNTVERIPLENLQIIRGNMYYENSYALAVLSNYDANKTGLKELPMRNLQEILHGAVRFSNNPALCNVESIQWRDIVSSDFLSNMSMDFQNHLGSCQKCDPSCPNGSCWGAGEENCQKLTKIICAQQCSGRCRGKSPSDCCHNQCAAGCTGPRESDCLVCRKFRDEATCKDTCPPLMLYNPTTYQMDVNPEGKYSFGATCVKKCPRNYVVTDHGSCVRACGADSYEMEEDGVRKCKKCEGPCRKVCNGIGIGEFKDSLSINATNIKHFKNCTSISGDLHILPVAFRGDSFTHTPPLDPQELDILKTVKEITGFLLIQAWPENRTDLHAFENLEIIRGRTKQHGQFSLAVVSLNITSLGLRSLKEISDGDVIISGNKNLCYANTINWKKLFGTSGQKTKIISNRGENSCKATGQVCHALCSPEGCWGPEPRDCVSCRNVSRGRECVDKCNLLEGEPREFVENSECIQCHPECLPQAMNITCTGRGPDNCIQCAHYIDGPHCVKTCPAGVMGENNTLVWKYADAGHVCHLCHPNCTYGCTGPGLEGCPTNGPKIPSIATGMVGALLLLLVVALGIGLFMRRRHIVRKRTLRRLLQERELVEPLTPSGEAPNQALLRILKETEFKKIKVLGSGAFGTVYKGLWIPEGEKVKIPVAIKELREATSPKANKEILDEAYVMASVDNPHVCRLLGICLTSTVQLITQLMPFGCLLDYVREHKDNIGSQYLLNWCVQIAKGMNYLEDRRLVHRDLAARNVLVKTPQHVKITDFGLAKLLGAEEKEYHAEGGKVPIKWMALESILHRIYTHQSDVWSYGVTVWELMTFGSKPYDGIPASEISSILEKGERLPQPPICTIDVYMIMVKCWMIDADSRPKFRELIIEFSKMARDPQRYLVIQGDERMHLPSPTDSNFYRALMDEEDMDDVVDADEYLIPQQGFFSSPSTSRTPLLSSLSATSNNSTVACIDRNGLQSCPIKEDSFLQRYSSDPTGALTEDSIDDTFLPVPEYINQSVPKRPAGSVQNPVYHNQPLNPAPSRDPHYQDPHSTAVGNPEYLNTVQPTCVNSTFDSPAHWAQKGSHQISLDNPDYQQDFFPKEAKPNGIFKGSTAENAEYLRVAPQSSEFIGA

Row | Structure (SMILES) | IC50 [1] [nM] | IC50 [2] [nM]
1 | C[C@@H]1[C@H](NC(=O)c2ccc(C(C)(C)O)cc2F)CCCN1c1nnc(C(N)=O)c(Nc2cnn(C)c2)n1 [Example D-308, 3-[(2R,3R)-3-[2-fluoro-4-(2-hydroxypropan-2-yl)benzamido]-2-methylpiperidin-1-yl]-5-[(1-methyl-1H-pyrazol-4-yl)amino]-1,2,4-triazine-6-carboxamide] | 1000 to 10000 | 1000 to 10000
2 | C[C@@H]1[C@H](NC(=O)c2ccc(C3CC3)nc2)CCCN1c1cnc(C(N)=O)c(Nc2ccc(OC3CCOCC3)cc2)n1 [Example D-309, 5-[(2R,3R)-3-(6-cyclopropylpyridine-3-amido)-2-methylpiperidin-1-yl]-3-{[4-(oxan-4-yloxy)phenyl]amino}pyrazine-2-carboxamide] | 100 to 1000 | 100 to 1000
3 | C[C@@H]1[C@H](NC(=O)c2ccc(C3CC3)cc2)CCCN1c1cnc(C(N)=O)c(Nc2cc(C3CCOCC3)ns2)n1 [Example D-310, 5-[(2R,3R)-3-(4-cyclopropylbenzamido)-2-methylpiperidin-1-yl]-3-{[3-(oxan-4-yl)-1,2-thiazol-5-yl]amino}pyrazine-2-carboxamide] | 100 to 1000 | 1000 to 10000
4 | C[C@@H]1[C@H](NC(=O)c2ccc(C3CC3)cc2)CCCN1c1cnc(C(N)=O)c(Nc2cc(C3CCN(C4CCCC4)CC3)ns2)n1 [Example D-311, 3-{[3-(1-cyclopentylpiperidin-4-yl)-1,2-thiazol-5-yl]amino}-5-[(2R,3R)-3-(4-cyclopropylbenzamido)-2-methylpiperidin-1-yl]pyrazine-2-carboxamide] | 100 to 1000 | 1000 to 10000
5 | C[C@@H]1[C@H](NC(=O)c2ccc(C3CC3)cc2)CCCN1c1cnc(C(N)=O)c(Nc2cc(C3CCN(C)CC3)ns2)n1 [Example D-312, 5-[(2R,3R)-3-(4-cyclopropylbenzamido)-2-methylpiperidin-1-yl]-3-{[3-(1-methylpiperidin-4-yl)-1,2-thiazol-5-yl]amino}pyrazine-2-carboxamide] | 100 to 1000 | 100 to 1000
6 | C[C@@H]1[C@H](NC(=O)c2ccc(C3CC3)cc2F)CCCN1c1cnc(C(N)=O)c(Nc2ccc(N3CCNCC3)c(F)c2)n1 [Example D-313, 5-[(2R,3R)-3-(4-cyclopropyl-2-fluorobenzamido)-2-methylpiperidin-1-yl]-3-{[3-fluoro-4-(piperazin-1-yl)phenyl]amino}pyrazine-2-carboxamide] | 100 to 1000 | 100 to 1000
7 | C[C@@H]1[C@H](NC(=O)N(C)C2CC2)CCCN1c1cnc(C(N)=O)c(Nc2cnn(C)c2)n1 [Example D-314, 5-[(2R,3R)-3-{[cyclopropyl(methyl)carbamoyl]amino}-2-methylpiperidin-1-yl]-3-[(1-methyl-1H-pyrazol-4-yl)amino]pyrazine-2-carboxamide] | 1000 to 10000 | 1000 to 10000
8 | C[C@@H]1[C@H](NC(=O)c2ccc(C3CC3)cc2)CCCN1c1cnc(C(N)=O)c(Nc2ccc3c(c2)OC(F)(F)O3)n1 [Example D-315, 5-[(2R,3R)-3-(4-cyclopropylbenzamido)-2-methylpiperidin-1-yl]-3-[(2,2-difluoro-2H-1,3-benzodioxol-5-yl)amino]pyrazine-2-carboxamide] | > 10000 | > 10000
